Data reported in article PMC11859726, “HDAC/σ1R Dual-Ligand as a Targeted Melanoma Therapeutic” (Pharmaceuticals, 2025).

Assays:
endothelial C166 cells = assay: Tube formation assay, VEGF-A-stimulated endothelial cells; type: cell-based, mouse; conditions: for antiangiogenic effect in the presence of pentazocine: 5 µM plus σ1R agonist pentazocine 2 μM; for antiangiogenic effect in the presence of pentazocine / antiangiogenic effect in the presence of AC927: combined score; for antiangiogenic effect in the presence of AC927: 5 µM plus σ2R antagonist AC927 2 μM; for effect on VEGF-A-stimulated angiogenesis (tube lengths, mesh areas, node numbers; words): 5 µM
Method: The tube formation assay using mouse endothelial […] cells was analyzed employing Matrigel (BD, Bedford, MA, USA), as previously described. Briefly, 96-well plates coated with Matrigel (50 μL/well) were filled with 100 μL medium/well and maintained overnight. Endothelial cells were seeded at 2.5 × 10^4 cells/well and incubated (for 3 h) with VEGF-A (80 ng/mL), in the presence of the indicated treatments. Then, capillary-like structures were imaged (×4 magnification) with a CCD camera connected with an inverted EVOS microscope. Finally, ImageJ software (NIH, Bethesda, MD, USA) was employed to quantify tube formations.

MCF7 cells = assay: Tumor cell spreading assay, MCF7 cells; type: cell-based, human; conditions: 100 nM, 1 h; for inhibition of cell spreading: MCF7 cells (low σ1R); for cells flat, with protrusions, Exp 1 (%) / cells flat, with protrusions, Exp 2 (%) / cells flat, with protrusions, Exp 3 (%) / rounded cells, Exp 1 (%) / rounded cells, Exp 2 (%) / rounded cells, Exp 3 (%): MCF-7, % of total cell population
Method: (§1) Adherent 92-1 and MCF-7 cells were harvested using 0.05% Trypsin-EDTA and plated in 6-well plates. After 1 h incubations with the indicated treatments, the number of cells that formed, or not, distinct protrusions (lamellipodia, filopodia) were scored with an inverted microscope (20×, EVOS cell imaging system, Thermo Fisher, Waltham, MA, USA).

UM 92-1 cells [1] = assay: Tumor cell spreading assay, 92-1 cells; type: cell-based, human; conditions: 1 h; for cells flat, with protrusions, Exp 1 (%) / cells flat, with protrusions, Exp 2 (%) / cells flat, with protrusions, Exp 3 (%) / rounded cells, Exp 1 (%) / rounded cells, Exp 2 (%) / rounded cells, Exp 3 (%): 92-1, % of total cell population; for inhibition of cell spreading: UM 92-1 cells, from 100 nM
Method: as §1

[2] = system: HDAC enzymatic activities (MCF7, PC3, AGS cell lysates); assay: HDAC activity colorimetric assay in other cancer cell lysates (MCF7, PC3, AGS); type: biochemical, human; conditions: other cancer cell types (MCF7, PC3, AGS lysates) vs control
Method: (§2) HDAC activity was determined in the indicated cell lysates (50 µg proteins; 37 °C) using the non-selective HDAC Activity Colorimetric Assay kit (BioVision, Cambridge, UK), following the procedures described in previous studies. Samples were read at 405 nm with a microplate reader (Multiskan GO (Thermo Fisher Scientific, Waltham, MA, USA)), and the HDAC activity was expressed as the relative optical density (O.D.) values.

A549 cells = assay: Cell proliferation, A549 cells; type: cell-based; conditions: Homo sapiens; A549 (Lung Carcinoma); 48 h; mean ± SD; read-out: Antiproliferative IC50
Method: (§3) Cells were seeded in 96-well plates at a cell-specific density, following quantification of cell numbers on counting chambers after trypsinization and staining with trypan blue. After seeding (72 h), at a cell confluence of ~50%, the medium was removed, and treatments were started with fresh media. Treatments, carried out in quadruplicate, lasted for 48 h. Then, the cells were fixed with 4% paraformaldehyde in PBS for 20 min and, after washing, stained with either 1% crystal violet in water or an acridine orange solution (50 µg/mL) for an additional 20 min. At the end of the incubations, cells were washed (3 times) with 100 μL/well of bidistilled water. Finally, for crystal violet assays, 100 μL of 10% acetic acid was added to each well, and the absorbance (λ = 590 nm) was measured with a Synergy HTX Bioteck spectrophotometer (BioSPX, Beersel, Belgium). For acridine orange assays, cell staining was evaluated by measuring the fluorescence (excitation 485/20 nm, emission 528/20 nm) with the Synergy HTX Bioteck reader.

UM 92-1 cells [3] = assay: Cell proliferation, UM 92-1 cells; type: cell-based, human
Method: as §3

σ2R = target: T1, σ2R (Cavia porcellus, UniProt H0V073); assay: σ2R radioligand binding assay ([3H]-DTG); set-up: species or system guinea pig
T1 construct: using guinea pig brain membranes and appropriate radioligands; from tissue; host or cells: guinea pig brain membranes
T1 sequence (H0V073 1-176): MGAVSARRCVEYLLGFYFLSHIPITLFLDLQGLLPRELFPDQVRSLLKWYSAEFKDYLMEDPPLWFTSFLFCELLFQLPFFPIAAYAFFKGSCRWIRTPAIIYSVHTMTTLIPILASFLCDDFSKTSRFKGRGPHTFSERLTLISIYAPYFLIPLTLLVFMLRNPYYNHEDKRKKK
Method: (§4) Radioactivity was determined with a Beckman LS6500 scintillation counter. Inhibition constants (Ki values) were calculated with the EBDA/LIGAND program (Elsevier/Biosoft).

T84 cells = assay: Cell proliferation, T84 cells; type: cell-based, human
Method: as §3

786-O cells = assay: Cell proliferation, 786-O cells; type: cell-based; conditions: Homo sapiens, 786-0; 786-O (Renal Adenocarcinoma); 48 h; mean ± SD; read-out: Antiproliferative IC50
Method: as §3

WS1 cells = assay: Cell proliferation, normal WS1 fibroblasts; type: cell-based; conditions: Homo sapiens; WS1 (Normal Skin Fibroblast); 48 h; mean ± SD; read-out: Antiproliferative IC50
Method: as §3

A375 cells = assay: Cell proliferation, CM A375 cells; type: cell-based, human
Method: as §3

σ1R = target: T2, σ1R (Cavia porcellus, UniProt Q60492); assay: σ1R radioligand binding assay ([3H]-(+)-pentazocine); set-up: species or system guinea pig
T2 construct: using guinea pig brain membranes and appropriate radioligands; from tissue; host or cells: guinea pig brain membranes
T2 sequence (Q60492 whole entry): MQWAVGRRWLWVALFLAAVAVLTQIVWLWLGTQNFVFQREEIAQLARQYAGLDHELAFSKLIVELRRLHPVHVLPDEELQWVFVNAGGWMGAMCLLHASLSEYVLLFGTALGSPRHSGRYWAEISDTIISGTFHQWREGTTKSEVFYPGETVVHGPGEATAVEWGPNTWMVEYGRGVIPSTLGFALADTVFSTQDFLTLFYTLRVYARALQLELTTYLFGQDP
Method: as §4

MRC-5 cells = assay: Cell proliferation, normal MRC-5 fibroblasts; type: cell-based; conditions: Homo sapiens, MRC5; MRC-5 (Normal Lung Fibroblast); 48 h; mean ± SD; read-out: Antiproliferative IC50
Method: as §3

[4] = system: HDAC (total HDAC activity, HCT116 cell lysates); assay: HDAC activity colorimetric assay in HCT116 cell lysates; type: biochemical, human
Method: as §2

SMILES | antiangiogenic effect in the presence of pentazocine (endothelial C166 cells) | antiangiogenic effect in the presence of AC927 (endothelial C166 cells) | effect on VEGF-A-stimulated angiogenesis (tube lengths, mesh areas, node numbers; words) (endothelial C166 cells; 3 h, VEGF-A 80 ng/mL) | inhibition of cell spreading (MCF7 cells) | cells flat, with protrusions, Exp 1 (%) (MCF7 cells) | cells flat, with protrusions, Exp 2 (%) (MCF7 cells) | cells flat, with protrusions, Exp 3 (%) (MCF7 cells) | rounded cells, Exp 1 (%) (MCF7 cells) | rounded cells, Exp 2 (%) (MCF7 cells) | rounded cells, Exp 3 (%) (MCF7 cells) | cells flat, with protrusions, Exp 1 (%) (UM 92-1 cells [1]; 100 nM) | cells flat, with protrusions, Exp 2 (%) (UM 92-1 cells [1]; 100 nM) | cells flat, with protrusions, Exp 3 (%) (UM 92-1 cells [1]; 100 nM) | rounded cells, Exp 1 (%) (UM 92-1 cells [1]; 100 nM) | rounded cells, Exp 2 (%) (UM 92-1 cells [1]; 100 nM) | rounded cells, Exp 3 (%) (UM 92-1 cells [1]; 100 nM) | cells flat, with protrusions, Exp 2 (%) (UM 92-1 cells [1]; 5 µM) | cells flat, with protrusions, Exp 3 (%) (UM 92-1 cells [1]; 5 µM) | rounded cells, Exp 2 (%) (UM 92-1 cells [1]; 5 µM) | rounded cells, Exp 3 (%) (UM 92-1 cells [1]; 5 µM) | further results
CCCC(CCC)C(=O)O[C@@H](CCCN1CCC(O)(c2ccc(Cl)cc2)CC1)c1ccc(F)cc1 [(-)-1, reference compound] | partially and equally blocked | partially and equally blocked | significantly inhibited | unable to significantly inhibit | 45,95% | 48,03% | 40,28% | 54,05% | 51,97% | 59,72% | 33,84% | 21,33% | 34,97% | 66,16% | 78,67% | 65,03% | 13,49% | 26,09% | 86,51% | 73,91% | inhibition of cell spreading (UM 92-1 cells [1]): reduced UM cell spreading with seemingly higher potencies
Cl.O=C(/C=C/c1ccc(CN2CCC(O)(c3ccc(Cl)cc3)CC2)cc1)NO [5c, (E)-4-(4-chlorophenyl)-4-hydroxy-1-{4-[3-(hydroxyamino)-3-oxoprop-1-en-1-yl]benzyl}piperidin-1-ium chloride] | completely prevented | to a significantly lesser extent than pentazocine | abrogated | failed to suppress | 47,13% | 44,67% | 39,07% | 52,87% | 55,33% | 60,93% | 37,23% | 27,77% | 37,27% | 62,77% | 72,23% | 62,73% | 17,22% | 33,05% | 82,78% | 66,95% | suppression of resident HDAC enzymatic activities [2]: significant suppression; IC50 (A549 cells): 0.118 ± 0.013 µM; superior antiproliferative potency in UM cells compared to normal lung fibroblasts (UM 92-1 cells [3]; 92-1 vs MRC-5 IC50): ~ 5 fold; IC50 (UM 92-1 cells [3]; Homo sapiens, 92.1 (Uveal Melanoma), 48 h, mean ± SD, read-out: Antiproliferative IC50): 0.0248 ± 0.0058 µM; Ki (σ2R): 2.05 ± 0.737 µM; effect on VEGF-A-stimulated angiogenesis (endothelial C166 cells; 30 nM, 3 h, VEGF-A 80 ng/mL): without effects; IC50 (T84 cells; Homo sapiens, T84 (Colorectal Carcinoma), 48 h, mean ± SD, read-out: Antiproliferative IC50): 1.2 ± 0.381 µM; sensitivity to antitumor actions (T84 cells; colon cancer T84 cells): resistant; IC50 (786-O cells): 0.15 ± 0.024 µM; IC50 (WS1 cells): 1.16 ± 0.187 µM; shift to the left in antiproliferative dose–response curves compared to normal skin fibroblasts (A375 cells; CM A375, lung A549 and renal 786-O vs WS1): 8–10 fold; IC50 (A375 cells; Homo sapiens, A-375, A375 (Cutaneous Melanoma), 48 h, mean ± SD, read-out: Antiproliferative IC50): 0.0915 ± 0.0114 µM; Ki (σ1R): 0.019 ± 0.0016 µM; fold higher affinity for σ1R than σ2R (σ1R; σ1R vs σ2R Ki): > 100 fold; IC50 (MRC-5 cells): 0.157 ± 0.0552 µM; cells flat, with protrusions, Exp 1 (%) (UM 92-1 cells [1]; 5 µM): 28,48%; rounded cells, Exp 1 (%) (UM 92-1 cells [1]; 5 µM): 71,52%; inhibition of cell spreading (UM 92-1 cells [1]): significant inhibition; HDAC inhibition with respect to the vehicle control [4]: ~ 80%; IC50 ([4]; 0–20 µM, read-out: IC50 on HDAC-dependent catalytic activity): 0.0146 µM
